The results in this text go back to BindingDB's records for doi:10.7270/Q2M32T6M (Vanderbilt Screening Center for GPCRs, Ion Channels and …, 2009).

The first test concerns the target T1, Solute carrier family 12 member 5 (Homo sapiens, UniProt Q9H2X9).
T1 sequence (Q9H2X9 whole entry): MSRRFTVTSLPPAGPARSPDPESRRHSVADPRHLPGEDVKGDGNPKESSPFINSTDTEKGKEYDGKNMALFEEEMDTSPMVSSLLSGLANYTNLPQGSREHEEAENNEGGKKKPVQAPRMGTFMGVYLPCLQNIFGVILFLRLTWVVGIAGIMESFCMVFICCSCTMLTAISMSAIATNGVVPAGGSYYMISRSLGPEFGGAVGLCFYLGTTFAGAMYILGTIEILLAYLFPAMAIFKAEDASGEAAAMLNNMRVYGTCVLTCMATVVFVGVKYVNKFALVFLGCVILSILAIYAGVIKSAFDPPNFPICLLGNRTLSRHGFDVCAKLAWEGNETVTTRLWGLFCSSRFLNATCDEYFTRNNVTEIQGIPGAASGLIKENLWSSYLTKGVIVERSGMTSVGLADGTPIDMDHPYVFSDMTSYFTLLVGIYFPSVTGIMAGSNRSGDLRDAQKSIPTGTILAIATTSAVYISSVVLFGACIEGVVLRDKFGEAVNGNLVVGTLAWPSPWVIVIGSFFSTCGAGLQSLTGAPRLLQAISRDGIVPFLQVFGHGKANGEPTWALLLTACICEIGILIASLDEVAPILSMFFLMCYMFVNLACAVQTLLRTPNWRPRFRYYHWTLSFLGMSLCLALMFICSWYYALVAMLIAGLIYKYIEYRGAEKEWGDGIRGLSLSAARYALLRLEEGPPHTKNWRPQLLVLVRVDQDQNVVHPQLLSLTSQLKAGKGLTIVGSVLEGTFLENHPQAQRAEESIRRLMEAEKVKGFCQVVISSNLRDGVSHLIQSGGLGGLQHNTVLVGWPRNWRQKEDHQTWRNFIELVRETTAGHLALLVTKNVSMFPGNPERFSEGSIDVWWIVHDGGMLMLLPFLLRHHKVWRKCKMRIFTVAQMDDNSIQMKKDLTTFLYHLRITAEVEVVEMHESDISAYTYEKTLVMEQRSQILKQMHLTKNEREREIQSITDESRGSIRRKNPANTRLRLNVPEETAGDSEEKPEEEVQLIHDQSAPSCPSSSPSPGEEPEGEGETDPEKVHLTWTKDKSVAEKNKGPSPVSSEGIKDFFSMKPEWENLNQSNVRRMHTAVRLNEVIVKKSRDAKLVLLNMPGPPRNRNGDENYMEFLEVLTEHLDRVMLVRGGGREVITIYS
The test is described as follows: concentration-response of KCC2 transport modulators – cell-based, HEK293 KCC2, FluoZin-2 fluorescence, dose response (AID 1736).
Conditions: not given
A word on the EC50: it is the midpoint of the concentration-response curve. For the compound `COc1cc(OC)c(C2=NOC(C(=O)N3CCc4ccccc4C3)C2)cc1Cl` (stereo not drawn) [2-{[3-(5-chloro-2,4-dimethoxyphenyl)-4,5-dihydro-5-isoxazolyl]carbonyl}-1,2,3,4-tetrahydroisoquinoline], the 50% effective concentration (EC50) came out at 5.55 µM.

The compound `O=C(C1CCN(S(=O)(=O)c2cccs2)CC1)N1CCc2ccccc2C1` [3,4-dihydro-1H-isoquinolin-2-yl-(1-thiophen-2-ylsulfonyl-4-piperidinyl)methanone] registered an EC50 of 2650 µM.

`O=C(C1CCN(c2nnc(-n3cccc3)s2)CC1)N1CCc2ccccc2C1` [3,4-dihydro-1H-isoquinolin-2-yl-[1-(5-pyrrol-1-yl-1,3,4-thiadiazol-2-yl)-4-piperidyl]methanone] registered an EC50 of 9.6 µM.

The compound `CC12CC3(C)CC(C)(C1)CC(C(=O)NC(=S)N1CCCC1)(C2)C3` [3,5,7-trimethyl-N-pyrrolidin-1-ylcarbothioyl-adamantane-1-carboxamide] came in with a 50% effective concentration (EC50) of 0.541 µM.

With `CCCCCC(=O)Cc1cc(O)cc2c1C(=O)Oc1cc(O)c(C(=O)O)c(CCCCC)c1O2` [3,8-Dihydroxy-11-oxo-1-(2-oxo-heptyl)-6-pentyl-11H-dibenzo[b,e][1,4]dioxepine-7-carboxylic acid], the half-maximal effective concentration (EC50) worked out at 8.19 µM.

Regarding `Cc1cc(C(=O)COC(=O)CCc2nc3ccccc3s2)c(C)n1C` [3-(1,3-benzothiazol-2-yl)propanoic acid [2-oxo-2-(1,2,5-trimethyl-3-pyrrolyl)ethyl] ester], the concentration giving a half-maximal response (EC50) was 1.94 µM.

On to `Cc1ccccc1OCC(=O)NNC(=O)CCN1C(=O)c2ccccc2C1=O` [3-(1,3-dioxo-2-isoindolyl)-N'-[2-(2-methylphenoxy)-1-oxoethyl]propanehydrazide], for which a half-maximal response (EC50) required 432 µM.

`Cc1ccc(/C=C2\SC(=S)N(c3c(C)n(C)n(-c4ccccc4)c3=O)C2=O)cc1` [3-(1,5-dimethyl-3-oxo-2-phenyl-2,3-dihydro-1H-pyrazol-4-yl)-5-(4-methylbenzylidene)-2-thioxo-1,3-thiazolidin-4-one] showed a concentration giving a half-maximal response (EC50) of 2.3 µM.

The compound `O=C(NCCCCc1ccccc1)C1CC(c2ccccc2[N+](=O)[O-])=NO1` (stereo not drawn) [3-(2-nitrophenyl)-N-(4-phenylbutyl)-2-isoxazoline-5-carboxamide] showed an EC50 of 5.52 µM.

Regarding `O=C(CCSCCc1ccccn1)Nc1ccc(Cc2ccncc2)cc1` [3-(2-pyridin-2-ylethylsulfanyl)-N-[4-(pyridin-4-ylmethyl)phenyl]propanamide], the EC50 was 72.4 µM.

Turning to `O=S(=O)(NC1CCCC1)c1cccc(S(=O)(=O)N2CCC(n3nnc4ccccc43)CC2)c1` [3-(4-Benzotriazol-1-yl-piperidine-1-sulfonyl)-N-cyclopentyl-benzenesulfonamide], the EC50 stood at 4.05 µM.

For `CCN(CC)c1ccc2c(C)c(-c3ccc(N)cc3)c(=O)oc2c1` [3-(4-aminophenyl)-7-(diethylamino)-4-methyl-1-benzopyran-2-one], a half-maximal effect (EC50) was put at 1.15 µM.

`CN1c2ccccc2Oc2nnc(N3CCN(Cc4ccccc4)CC3)cc21` [3-(4-benzylpiperazin-1-yl)-5-methylpyridazino[3,4-b][1,4]benzoxazine] came in with a 50% effective concentration (EC50) of 1.88 µM.

Turning to `CCOc1ccc(C(CC(=O)O)NC(=O)C(Sc2ccccc2)c2ccccc2)cc1` (stereo not drawn) [3-(4-ethoxyphenyl)-3-[(2-phenyl-2-phenylsulfanyl-ethanoyl)amino]propanoic acid], the half-maximal effective concentration (EC50) was 23.3 µM.

The compound `CS/C(=N\Cc1ccc(F)cc1)NS(=O)(=O)c1cccs1` [3-(4-fluorobenzyl)-2-methyl-1-(2-thienylsulfonyl)isothiourea] came in with an EC50 of 0.498 µM.

`O=C(Cn1cnc2c(nnn2Cc2ccc(F)cc2)c1=O)N1CCN(c2ccccc2)CC1` [3-(4-fluorobenzyl)-6-[2-keto-2-(4-phenylpiperazino)ethyl]triazolo[4,5-d]pyrimidin-7-one] displayed an EC50 of 1.65 µM.

The compound `Cc1ccc(OCCC(=O)OCC(=O)N2c3ccccc3CC2C)cc1` (stereo not drawn) [3-(4-methylphenoxy)propanoic acid [2-(2-methyl-2,3-dihydroindol-1-yl)-2-oxoethyl] ester] registered a concentration giving a half-maximal response (EC50) of 2.68 µM.

With `COc1cc(OC)c(C2=NOC(C(=O)NCCc3ccccc3)C2)cc1Cl` (stereo not drawn) [3-(5-chloranyl-2,4-dimethoxy-phenyl)-N-(2-phenylethyl)-4,5-dihydro-1,2-oxazole-5-carboxamide], it took 47.1 µM to reach a half-maximal effect (EC50).

`CCOc1ccc2nc(Sc3cc(O)n(-c4cccc(OC)c4)c3O)sc2c1` [3-(6-Ethoxy-benzothiazol-2-ylsulfanyl)-1-(3-methoxy-phenyl)-pyrrolidine-2,5-dione]: the concentration giving a half-maximal response (EC50) is 11 µM.

With `COC(=O)c1sccc1NC(=S)OC` [3-(methoxycarbothioylamino)thiophene-2-carboxylic acid methyl ester], the midpoint of the response, the EC50, lay at 1.48 µM.

Regarding `O=C(Nc1ccc(Cc2ccncc2)cc1)c1cccc([N+](=O)[O-])c1` [3-Nitro-N-(4-pyridin-4-ylmethyl-phenyl)-benzamide], the EC50 came to 4.96 µM.

For the compound `O=C(O)CCn1c(SCc2cccc3ccccc23)nc2ccccc21` [3-[2-(1-naphthalenylmethylthio)-1-benzimidazolyl]propanoic acid], the 50% effective concentration (EC50) came to 0.677 µM.

`O=C(O)CCc1cc(I)c(Oc2ccc(O)c(I)c2)c(I)c1` [3-[4-(4-hydroxy-3-iodophenoxy)-3,5-diiodophenyl]propanoic acid] yielded an EC50 of 4.25 µM.

`Cc1ccc(C(=O)O)cc1-c1ccc(C=C2NC(=O)N(c3ccccc3)C2=O)o1` [3-[5-[(E)-(2,5-dioxo-1-phenylimidazolidin-4-ylidene)methyl]furan-2-yl]-4-methylbenzoic acid] gave a half-maximal effective concentration (EC50) of 10.7 µM.

Regarding `O=C(O)CCN(Cc1ccccc1)S(=O)(=O)c1c(Cl)cccc1Cl` [3-[(2,6-dichlorophenyl)sulfonyl-(phenylmethyl)amino]propanoic acid], it took 86000 µM to reach a half-maximal effect (EC50).

Take `Cc1ccc(S(=O)(=O)N(CCC(=O)O)Cc2ccc(Cl)cc2)cc1` [3-[(4-chlorobenzyl)-tosyl-amino]propionic acid]: a half-maximal response (EC50) required 2.69 µM.

Take `Fc1ccc(CSc2nncn2NC/C=C/c2ccccc2)cc1` [3-[(4-fluorobenzyl)thio]-N-(3-phenyl-2-propen-1-yl)-4H-1,2,4-triazol-4-amine]: the 50% effective concentration (EC50) stood at 4.5 µM.

Compound `CC1(CCc2ccccc2)NC(=O)N(Cc2nnc(-c3ccccc3Br)o2)C1=O` (stereo not drawn) [3-[[5-(2-bromophenyl)-1,3,4-oxadiazol-2-yl]methyl]-5-methyl-5-(2-phenylethyl)imidazolidine-2,4-dione] returned an EC50 of 6.01 µM.

For `O=C(OCC(=O)N1CCN(C(=O)c2ccco2)CC1)c1sc2ccccc2c1Cl` [3-chloro-1-benzothiophene-2-carboxylic acid [2-[4-[2-furanyl(oxo)methyl]-1-piperazinyl]-2-oxoethyl] ester], the EC50 amounted to 1.6 µM.

`CCOc1cc(S(=O)(=O)NCc2ccccc2)ccc1F` [3-ethoxy-4-fluoranyl-N-(phenylmethyl)benzenesulfonamide] returned a concentration for a half-maximal effect (EC50) of 5.41 µM.

For `C=C(C)Cn1c(N2CCC(Cc3ccccc3)CC2)nc2c1c(=O)[nH]c(=O)n2C` [3-methyl-7-(2-methylprop-2-enyl)-8-[4-(phenylmethyl)-1-piperidinyl]purine-2,6-dione], it took 15.8 µM to reach a half-maximal effect (EC50).

In turn, `COCCNS(=O)(=O)c1ccc(-c2ccc(Cl)cc2)cc1` [4'-chloro-N-(2-methoxyethyl)-4-biphenylsulfonamide] had a concentration for a half-maximal effect (EC50) of 3.27 µM.

For the compound `Cc1c(N=C2Nc3cccc4cccc2c34)c(=O)n(-c2ccccc2)n1C` [4-(2-benzo[cd]indolylamino)-1,5-dimethyl-2-phenyl-3-pyrazolone], the response was half-maximal at 0.733 µM (EC50).

`O=C(OCC(=O)N1CCc2ccccc2C1)c1ccc(N2CCOCC2)c([N+](=O)[O-])c1` [4-(4-morpholinyl)-3-nitrobenzoic acid [2-(3,4-dihydro-1H-isoquinolin-2-yl)-2-oxoethyl] ester] displayed an EC50 of 11.5 µM.

As to `O=C(NC(=S)NNC(=O)c1cnccn1)c1ccc(Cl)cc1` [4-Chloro-N-[N'-(pyrazine-2-carbonyl)-hydrazinocarbothioyl]-benzamide], the half-maximal effective concentration (EC50) was 9.74 µM.

Turning to `O=C(c1cc(COc2c(F)cccc2F)on1)N1CCC(c2ccncc2)CC1` [4-[1-({5-[(2,6-difluorophenoxy)methyl]isoxazol-3-yl}carbonyl)piperidin-4-yl]pyridine], the EC50 was determined as 17.9 µM.

The same test, now with this note: inactive by the depositor's call.
For the compound `Cc1nn(-c2ccccc2)c2sc(C(=O)N(Cc3ccco3)C(C)C(=O)NC(C)(C)C)cc12` (stereo not drawn) [3-Methyl-1-phenyl-1H-thieno[2,3-c]pyrazole-5-carboxylic acid (1-tert-butylcarbamoyl-ethyl)-furan-2-ylmethyl-amide], the response was half-maximal at 33.2 µM (EC50).

For `O=C(Nc1ccn(Cc2ccccc2)n1)c1cccc(F)c1` [3-fluoranyl-N-[1-(phenylmethyl)pyrazol-3-yl]benzamide], the concentration for a half-maximal effect (EC50) was 4.51 µM.
